Data reported in the NIST ThermoML archive (doi:10.1021/je034243t).

Experiment: xn = mol fraction of the nth substance listed
Conditions: 291.15 K, Liquid, Vibrating tube method

O=C=O [carbon dioxide] + CCO
Conditions	mass density [kg/m3]
x1 = 0.184	819.5
x1 = 0.227	826.4
x1 = 0.304	836.8
x1 = 0.455	855.1
x1 = 0.728	865.9
x1 = 0.838	856.5
x1 = 0.951	828
x1 = 0.983	811.3
x1 = 0.996	800.6
